Reference: PMC5983544, “Muscarinic M5 receptors modulate ethanol seeking in rats” (Neuropsychopharmacology, 2018)

Legend:
rat M5 mAChR [1] = biological target: T1, rat M5 mAChR (Rattus norvegicus, UniProt P08911); experiment: [3H]NMS equilibrium binding in whole CHO-rM5 cells (interaction with ACh); settings: whole-cell [3H]NMS binding, read-out: binding affinity pKB (converted)
T1 sequence (P08911 1-531): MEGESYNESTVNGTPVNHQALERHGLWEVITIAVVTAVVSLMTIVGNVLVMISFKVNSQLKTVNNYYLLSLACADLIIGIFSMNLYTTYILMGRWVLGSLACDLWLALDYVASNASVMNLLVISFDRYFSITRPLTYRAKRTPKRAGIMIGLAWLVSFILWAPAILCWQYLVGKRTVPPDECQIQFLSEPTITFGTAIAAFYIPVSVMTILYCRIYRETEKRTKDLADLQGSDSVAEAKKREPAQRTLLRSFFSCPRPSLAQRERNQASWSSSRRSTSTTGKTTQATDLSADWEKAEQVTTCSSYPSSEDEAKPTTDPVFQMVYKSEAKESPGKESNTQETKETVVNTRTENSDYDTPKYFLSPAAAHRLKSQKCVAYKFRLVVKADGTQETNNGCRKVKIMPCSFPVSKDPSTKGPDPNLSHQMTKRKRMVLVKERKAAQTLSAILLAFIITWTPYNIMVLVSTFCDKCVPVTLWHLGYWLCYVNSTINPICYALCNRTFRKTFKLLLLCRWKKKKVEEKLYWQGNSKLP
Experimental: (§1) Rat mAChR subtypes (rM1–rM5; Origene) and human cannabinoid 1 receptor (hCB1; ref. [24]) constructs were isogenically integrated into FlpIn CHO cells (Invitrogen) and cells were selected in the presence of […] hygromycin B at 37 °C, 5% CO2, as previously described for the human M1 mAChR [25]. All cells were sub-cultured and seeded as previously described for the CHO-hM5 cells.
(§2) [^3H]NMS equilibrium binding assays in CHO-rM1 to CHO-rM5 cells were performed as previously described for CHO-hM5 cells. For [^35S]GTPγS binding, CHO-rM2 and CHO-rM4 cell membranes were prepared as described in Supplementary information. Membrane [^35S]GTPγS binding was performed as described in ref [26]., except GDP and [^35S]GTPγS concentrations were 1 μM and 0.3 nM, respectively. [^3H](+)-pentazocine binding was performed as described in ref. [27].

rat M2 mAChR = biological target: T2, rat M2 mAChR (Rattus norvegicus, UniProt P10980); experiment: [3H]NMS equilibrium binding in whole CHO-rM2 cells; settings: rM2, [3H]NMS binding
T2 construct: host or cells: FlpIn CHO cells (Invitrogen)
T2 sequence (P10980 1-466): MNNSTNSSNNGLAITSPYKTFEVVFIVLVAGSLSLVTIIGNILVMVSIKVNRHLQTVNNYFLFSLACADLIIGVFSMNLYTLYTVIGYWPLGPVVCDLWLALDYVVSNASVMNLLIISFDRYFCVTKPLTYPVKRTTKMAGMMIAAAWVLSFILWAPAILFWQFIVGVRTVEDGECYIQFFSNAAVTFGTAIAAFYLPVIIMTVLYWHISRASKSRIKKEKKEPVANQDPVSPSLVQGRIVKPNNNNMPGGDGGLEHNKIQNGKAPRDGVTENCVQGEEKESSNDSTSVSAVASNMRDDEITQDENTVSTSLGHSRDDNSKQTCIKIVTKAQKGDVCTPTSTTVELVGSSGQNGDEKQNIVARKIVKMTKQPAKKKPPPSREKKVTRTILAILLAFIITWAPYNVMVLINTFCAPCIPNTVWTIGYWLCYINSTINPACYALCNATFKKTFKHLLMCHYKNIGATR
Experimental: as §1, §2

rat M4 mAChR = biological target: T3, rat M4 mAChR (Rattus norvegicus, UniProt P08485); experiment: [3H]NMS equilibrium binding in whole CHO-rM4 cells; settings: rM4, [3H]NMS binding
T3 construct: host or cells: FlpIn CHO cells (Invitrogen)
T3 sequence (P08485 1-478): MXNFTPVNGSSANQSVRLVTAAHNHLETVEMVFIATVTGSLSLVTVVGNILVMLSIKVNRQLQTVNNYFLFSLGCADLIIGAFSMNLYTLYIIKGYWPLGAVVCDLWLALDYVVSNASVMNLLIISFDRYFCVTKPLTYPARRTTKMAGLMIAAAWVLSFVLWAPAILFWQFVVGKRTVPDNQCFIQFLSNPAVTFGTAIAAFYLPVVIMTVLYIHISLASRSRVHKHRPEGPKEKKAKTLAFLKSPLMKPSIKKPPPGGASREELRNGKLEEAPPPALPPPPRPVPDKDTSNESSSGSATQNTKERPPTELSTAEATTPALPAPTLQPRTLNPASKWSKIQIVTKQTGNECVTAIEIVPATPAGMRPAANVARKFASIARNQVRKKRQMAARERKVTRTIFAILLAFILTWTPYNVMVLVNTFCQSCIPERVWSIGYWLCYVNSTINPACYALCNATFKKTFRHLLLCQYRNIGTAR
Experimental: as §1, §2

rat M5 mAChR [2] = biological target: T1, rat M5 mAChR; experiment: ACh-stimulated IP accumulation (IP-One) in CHO-rM5 cells; assay type: cell-based
Experimental: (§3) The IP-One assay kit (Cisbio) was used for the direct quantitative measurement of inositol phosphate (IP) accumulation in CHO-rM1, CHO-rM3 or CHO-rM5 cells, as described previously. The CHO-hCB1 pERK1/2 assays were performed as described in ref [24].

rat M1 mAChR = biological target: T4, rat M1 mAChR (Rattus norvegicus, UniProt P08482); experiment: ACh-stimulated IP accumulation (IP-One) in CHO-rM1 cells; assay type: cell-based
T4 construct: host or cells: FlpIn CHO cells (Invitrogen)
T4 sequence (P08482 1-460): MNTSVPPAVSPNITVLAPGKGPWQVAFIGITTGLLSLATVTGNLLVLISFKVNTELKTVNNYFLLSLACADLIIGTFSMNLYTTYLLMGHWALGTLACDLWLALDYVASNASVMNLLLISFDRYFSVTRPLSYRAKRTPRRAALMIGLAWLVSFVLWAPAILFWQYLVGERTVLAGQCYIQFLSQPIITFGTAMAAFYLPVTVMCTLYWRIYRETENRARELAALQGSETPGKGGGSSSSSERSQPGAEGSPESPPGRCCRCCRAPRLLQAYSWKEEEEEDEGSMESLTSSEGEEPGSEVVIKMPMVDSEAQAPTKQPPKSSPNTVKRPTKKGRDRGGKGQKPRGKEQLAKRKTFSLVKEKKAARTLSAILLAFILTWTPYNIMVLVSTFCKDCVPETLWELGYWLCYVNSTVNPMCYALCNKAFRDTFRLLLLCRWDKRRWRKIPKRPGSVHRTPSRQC
Experimental: as §3

rat M3 mAChR = biological target: T5, rat M3 mAChR (Rattus norvegicus, UniProt P08483); experiment: ACh-stimulated IP accumulation (IP-One) in CHO-rM3 cells; assay type: cell-based; settings: Fig. 2c
T5 construct: host or cells: FlpIn CHO cells (Invitrogen)
Experimental: as §3

[3] = tested on: ethanol-preferring (iP) rats; experiment: Operant sucrose self-administration, oral dosing; assay type: in vivo, rat; settings: 30 mg/kg p.o. x3
From the text: A separate cohort of rats were trained to self-administer sucrose (0.05–1% w/v). Rats underwent an identical dosing regimen of vehicle or ML375 before testing.

T5 sequence (P08483 whole entry): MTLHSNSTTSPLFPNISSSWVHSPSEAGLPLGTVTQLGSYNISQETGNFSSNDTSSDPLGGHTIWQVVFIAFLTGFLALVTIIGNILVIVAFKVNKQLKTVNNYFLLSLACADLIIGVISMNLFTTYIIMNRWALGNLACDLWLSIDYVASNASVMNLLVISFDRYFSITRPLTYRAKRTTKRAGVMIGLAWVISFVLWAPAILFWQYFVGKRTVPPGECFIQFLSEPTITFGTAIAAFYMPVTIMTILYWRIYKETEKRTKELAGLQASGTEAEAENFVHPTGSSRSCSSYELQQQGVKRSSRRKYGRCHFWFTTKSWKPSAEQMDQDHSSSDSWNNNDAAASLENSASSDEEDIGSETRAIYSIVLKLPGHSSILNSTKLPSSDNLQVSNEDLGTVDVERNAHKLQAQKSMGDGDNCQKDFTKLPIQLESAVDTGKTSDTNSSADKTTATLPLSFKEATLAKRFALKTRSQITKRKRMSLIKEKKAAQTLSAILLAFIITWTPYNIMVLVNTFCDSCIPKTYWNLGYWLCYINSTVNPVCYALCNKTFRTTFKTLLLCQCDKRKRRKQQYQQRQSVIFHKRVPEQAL

In the case of `O=C(c1ccc(F)c(F)c1)N1CCN2C(=O)c3ccccc3[C@@]12c1ccc(Cl)cc1` [ML375, (S)-9b-(4-chlorophenyl)-1-(3,4-difluorobenzoyl)-2,3-dihydro-1H-imidazo[2,1-a]isoi ndol-5(9bH)-one], the Kb (rat M5 mAChR [1]) is reported as 355 nM, the “effect on ACh affinity” value (rat M2 mAChR) is reported as “no significant effects” and the “effect on ACh affinity” value (rat M4 mAChR) is reported as “no significant effects”. For the same compound, the “functional cooperativity between ML375 and ACh” value (rat M5 mAChR [2]; rM5) was “high negative cooperativity”, the Kb (rat M5 mAChR [2]; read-out: functional affinity pKB (converted)) was 155 nM and the “effect on ACh potency” value (rat M1 mAChR) was “no significant effects”. For the same compound, the “activity on ACh function at rM3” value (rat M3 mAChR) was “weak activity”, the “sucrose responding vs vehicle” value ([3]; sucrose 0.05–1% w/v, P = 0.96) was “did not alter sucrose responding” and the “water responding vs vehicle” value ([3]; sucrose-trained rats, P = 1.0) was “no difference”.
